In patent US9493478B2, “Fused ring compound containing furan or salt thereof and pharmaceutical composition comprising same” (YUHAN CORPORATION, priority 2012, dated 2016):

Legend:
Format in all cases: biochemical
[1] = biological target: PI3Kγ (p120γ)(h) (Homo sapiens, UniProt P48736); experiment: Assay for phosphatidylinositol 3-kinase gamma (PI3Kγ) activity, PI3K-HTRF kit; conditions: TR-FRET; enzyme 1.45 μg/ml, 10 μM PIP2, 10 μM ATP
How it was run: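 Recombinant PI3Kγ (1.45 μg/ml final) preincubated ~10 min with compound, then reacted with 10 μM PIP2 and 10 μM ATP for 90 min at room temperature. PIP3 detected by HTRF (biotin-PIP3/Eu-PH domain/APC), 665/620 nm ratio after 6 h; IC50 from inhibition relative to controls.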

[2] = biological target: PI3Kδ (p110δ/p85α)(h) (Homo sapiens, UniProt O00329); experiment: Assay for phosphatidylinositol 3-kinase delta (PI3Kδ) activity, PI3K-HTRF kit; conditions: TR-FRET; enzyme 0.725 μg/ml, 10 μM PIP2, 10 μM ATP
[3] = biological target: PI3K β (p110β/p85α)(h) (Homo sapiens, UniProt P42338); experiment: Assay for phosphatidylinositol 3-kinase beta (PI3Kβ) activity, PI3K-HTRF kit; conditions: TR-FRET; enzyme 0.725 μg/ml, 10 μM PIP2, 10 μM ATP
[4] = biological target: PI3Kα (p110α/p85α)(h) (Homo sapiens, UniProt P42336); experiment: Assay for phosphatidylinositol 3-kinase alpha (PI3Kα) activity, PI3K-HTRF kit; conditions: TR-FRET; enzyme 0.3625 μg/ml, 10 μM PIP2, 10 μM ATP
PI3Kα (p110α/p85α)(h), sequence (P42336 whole entry): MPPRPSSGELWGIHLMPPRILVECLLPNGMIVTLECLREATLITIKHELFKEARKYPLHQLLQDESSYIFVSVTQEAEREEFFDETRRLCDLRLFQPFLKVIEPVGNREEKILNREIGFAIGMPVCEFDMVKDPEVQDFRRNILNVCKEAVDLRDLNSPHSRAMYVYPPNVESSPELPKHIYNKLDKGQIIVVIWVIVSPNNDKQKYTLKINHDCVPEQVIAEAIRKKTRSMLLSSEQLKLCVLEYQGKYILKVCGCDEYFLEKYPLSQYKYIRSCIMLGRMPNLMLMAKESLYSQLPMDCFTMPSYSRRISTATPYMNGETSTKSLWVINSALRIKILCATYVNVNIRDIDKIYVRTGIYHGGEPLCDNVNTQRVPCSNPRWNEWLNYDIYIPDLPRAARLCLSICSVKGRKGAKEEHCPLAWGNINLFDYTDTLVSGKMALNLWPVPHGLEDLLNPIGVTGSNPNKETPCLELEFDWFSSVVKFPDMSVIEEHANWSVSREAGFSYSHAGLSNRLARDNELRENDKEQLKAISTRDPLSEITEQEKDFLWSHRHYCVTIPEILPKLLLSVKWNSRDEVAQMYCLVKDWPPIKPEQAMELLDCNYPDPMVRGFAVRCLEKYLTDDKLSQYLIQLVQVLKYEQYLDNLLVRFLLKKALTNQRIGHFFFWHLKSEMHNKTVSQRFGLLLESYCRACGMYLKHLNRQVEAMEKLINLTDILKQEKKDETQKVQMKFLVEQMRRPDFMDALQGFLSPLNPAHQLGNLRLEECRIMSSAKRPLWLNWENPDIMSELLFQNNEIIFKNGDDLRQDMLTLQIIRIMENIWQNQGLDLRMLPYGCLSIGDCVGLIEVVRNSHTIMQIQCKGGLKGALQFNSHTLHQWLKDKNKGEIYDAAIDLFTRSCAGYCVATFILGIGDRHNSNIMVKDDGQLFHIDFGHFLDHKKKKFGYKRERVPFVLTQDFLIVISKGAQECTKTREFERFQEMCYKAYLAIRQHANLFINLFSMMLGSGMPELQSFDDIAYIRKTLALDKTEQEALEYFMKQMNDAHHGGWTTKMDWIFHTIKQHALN
PI3Kα (p110α/p85α)(h), sequence (P27986 whole entry partner): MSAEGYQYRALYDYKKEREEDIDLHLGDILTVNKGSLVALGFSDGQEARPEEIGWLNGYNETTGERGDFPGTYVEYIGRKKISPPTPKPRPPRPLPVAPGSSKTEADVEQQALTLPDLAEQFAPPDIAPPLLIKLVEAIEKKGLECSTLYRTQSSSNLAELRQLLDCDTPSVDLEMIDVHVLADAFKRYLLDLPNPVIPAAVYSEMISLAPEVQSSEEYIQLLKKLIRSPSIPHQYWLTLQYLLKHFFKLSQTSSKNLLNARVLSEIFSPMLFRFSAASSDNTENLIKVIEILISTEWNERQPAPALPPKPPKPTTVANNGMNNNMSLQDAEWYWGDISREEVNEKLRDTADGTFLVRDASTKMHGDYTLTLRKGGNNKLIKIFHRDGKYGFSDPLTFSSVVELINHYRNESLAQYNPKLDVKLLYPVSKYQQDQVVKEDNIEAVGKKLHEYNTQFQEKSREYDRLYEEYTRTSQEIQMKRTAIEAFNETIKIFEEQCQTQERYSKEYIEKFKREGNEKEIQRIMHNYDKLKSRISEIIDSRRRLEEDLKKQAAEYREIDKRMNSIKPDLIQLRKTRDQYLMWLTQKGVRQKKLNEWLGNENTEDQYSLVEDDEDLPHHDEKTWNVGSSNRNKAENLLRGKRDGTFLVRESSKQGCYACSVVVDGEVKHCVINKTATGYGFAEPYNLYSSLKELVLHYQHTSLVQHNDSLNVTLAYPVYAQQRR

PI3Kδ (p110δ/p85α)(h), sequence (O00329 whole entry): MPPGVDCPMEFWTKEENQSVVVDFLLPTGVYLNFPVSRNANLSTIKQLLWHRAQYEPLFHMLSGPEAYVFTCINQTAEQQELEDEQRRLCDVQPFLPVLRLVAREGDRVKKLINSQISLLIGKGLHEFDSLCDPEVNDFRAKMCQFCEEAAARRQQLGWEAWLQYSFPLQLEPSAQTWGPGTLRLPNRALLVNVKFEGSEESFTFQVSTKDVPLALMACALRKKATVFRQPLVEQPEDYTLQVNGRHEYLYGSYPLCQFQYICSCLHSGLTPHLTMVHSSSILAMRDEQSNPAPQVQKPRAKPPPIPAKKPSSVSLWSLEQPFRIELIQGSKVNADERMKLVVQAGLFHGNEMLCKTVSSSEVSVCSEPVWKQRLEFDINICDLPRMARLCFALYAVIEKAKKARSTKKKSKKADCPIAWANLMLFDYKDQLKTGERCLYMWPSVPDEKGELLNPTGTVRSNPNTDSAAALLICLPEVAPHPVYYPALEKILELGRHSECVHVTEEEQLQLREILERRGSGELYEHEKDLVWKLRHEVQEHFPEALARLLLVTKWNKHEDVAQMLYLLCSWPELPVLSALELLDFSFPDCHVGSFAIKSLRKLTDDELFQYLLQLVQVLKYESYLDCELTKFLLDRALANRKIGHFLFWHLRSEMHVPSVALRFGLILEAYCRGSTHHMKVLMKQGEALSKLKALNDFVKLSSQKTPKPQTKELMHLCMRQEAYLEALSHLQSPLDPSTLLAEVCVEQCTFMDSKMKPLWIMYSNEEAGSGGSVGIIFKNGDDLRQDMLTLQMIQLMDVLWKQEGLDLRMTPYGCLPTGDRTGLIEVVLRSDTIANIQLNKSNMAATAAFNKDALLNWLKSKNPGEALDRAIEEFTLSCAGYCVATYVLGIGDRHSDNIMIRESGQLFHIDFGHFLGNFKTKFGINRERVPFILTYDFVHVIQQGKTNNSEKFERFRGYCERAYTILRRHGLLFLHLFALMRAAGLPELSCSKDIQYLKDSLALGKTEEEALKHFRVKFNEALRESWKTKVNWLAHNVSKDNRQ
PI3Kδ (p110δ/p85α)(h), sequence (P27986 whole entry partner): as the sequence (P27986 whole entry partner) above
PI3Kγ (p120γ)(h), sequence (P48736 whole entry, the tested form may be a part): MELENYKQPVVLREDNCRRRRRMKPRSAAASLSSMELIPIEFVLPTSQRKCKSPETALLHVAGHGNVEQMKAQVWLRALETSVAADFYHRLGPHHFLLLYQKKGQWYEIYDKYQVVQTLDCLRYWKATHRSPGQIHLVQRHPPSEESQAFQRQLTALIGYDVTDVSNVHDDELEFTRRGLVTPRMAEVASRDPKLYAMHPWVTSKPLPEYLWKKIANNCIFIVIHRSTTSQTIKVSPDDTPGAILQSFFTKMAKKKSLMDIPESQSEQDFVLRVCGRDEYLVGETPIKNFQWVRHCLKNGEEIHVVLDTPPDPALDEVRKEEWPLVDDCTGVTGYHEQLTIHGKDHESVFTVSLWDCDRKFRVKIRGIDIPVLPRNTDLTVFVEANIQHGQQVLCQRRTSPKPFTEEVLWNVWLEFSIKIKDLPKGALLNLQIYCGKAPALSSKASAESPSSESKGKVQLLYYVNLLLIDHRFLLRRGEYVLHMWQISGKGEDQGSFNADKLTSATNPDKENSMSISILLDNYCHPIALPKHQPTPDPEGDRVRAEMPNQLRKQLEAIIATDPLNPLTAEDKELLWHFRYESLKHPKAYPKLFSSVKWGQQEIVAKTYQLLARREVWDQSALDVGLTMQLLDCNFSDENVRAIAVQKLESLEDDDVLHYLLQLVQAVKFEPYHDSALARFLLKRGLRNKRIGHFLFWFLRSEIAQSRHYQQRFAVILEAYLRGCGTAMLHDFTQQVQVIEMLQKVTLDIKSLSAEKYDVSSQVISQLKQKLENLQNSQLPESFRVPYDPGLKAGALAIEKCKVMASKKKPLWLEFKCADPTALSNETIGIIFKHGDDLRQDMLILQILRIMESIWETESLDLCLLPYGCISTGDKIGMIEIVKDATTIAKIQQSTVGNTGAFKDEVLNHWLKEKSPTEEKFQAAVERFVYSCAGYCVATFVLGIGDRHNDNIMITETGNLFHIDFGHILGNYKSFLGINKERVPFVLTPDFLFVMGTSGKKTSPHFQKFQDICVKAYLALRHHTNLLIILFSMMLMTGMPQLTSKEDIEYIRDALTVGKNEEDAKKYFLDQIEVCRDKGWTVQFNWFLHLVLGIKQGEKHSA
PI3K β (p110β/p85α)(h), sequence (P42338 whole entry): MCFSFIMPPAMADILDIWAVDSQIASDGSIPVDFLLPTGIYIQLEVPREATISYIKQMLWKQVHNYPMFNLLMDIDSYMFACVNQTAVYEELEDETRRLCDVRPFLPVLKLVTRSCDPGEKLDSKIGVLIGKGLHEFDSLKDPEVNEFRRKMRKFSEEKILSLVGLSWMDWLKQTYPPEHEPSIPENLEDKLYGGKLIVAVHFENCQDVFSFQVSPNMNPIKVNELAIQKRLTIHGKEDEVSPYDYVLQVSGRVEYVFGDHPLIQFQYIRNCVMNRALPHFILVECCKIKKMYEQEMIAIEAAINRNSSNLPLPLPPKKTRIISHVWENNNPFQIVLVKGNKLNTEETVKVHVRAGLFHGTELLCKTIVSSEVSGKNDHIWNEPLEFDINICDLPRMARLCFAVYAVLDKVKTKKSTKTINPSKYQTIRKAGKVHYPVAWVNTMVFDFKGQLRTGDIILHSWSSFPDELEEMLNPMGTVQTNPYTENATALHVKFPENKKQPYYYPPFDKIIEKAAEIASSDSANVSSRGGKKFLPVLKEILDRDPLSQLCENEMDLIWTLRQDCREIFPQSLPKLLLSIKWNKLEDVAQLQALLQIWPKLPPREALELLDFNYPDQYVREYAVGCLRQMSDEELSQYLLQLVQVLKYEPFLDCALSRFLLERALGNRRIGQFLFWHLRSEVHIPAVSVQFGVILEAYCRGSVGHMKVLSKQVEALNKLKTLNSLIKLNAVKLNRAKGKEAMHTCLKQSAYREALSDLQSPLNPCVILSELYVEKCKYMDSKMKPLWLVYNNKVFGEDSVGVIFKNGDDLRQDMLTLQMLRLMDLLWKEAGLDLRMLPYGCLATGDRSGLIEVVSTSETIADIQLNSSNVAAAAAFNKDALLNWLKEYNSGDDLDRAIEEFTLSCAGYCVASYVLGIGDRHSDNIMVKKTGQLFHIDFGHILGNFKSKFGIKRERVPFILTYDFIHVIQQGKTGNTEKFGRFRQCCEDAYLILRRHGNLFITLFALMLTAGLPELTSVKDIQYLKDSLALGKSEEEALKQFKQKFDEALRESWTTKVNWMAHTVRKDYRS
PI3K β (p110β/p85α)(h), sequence (P27986 whole entry partner): as the sequence (P27986 whole entry partner) above

| Compound | IC50 [1] | IC50 [2] | IC50 [3] | IC50 [4] |
| --- | --- | --- | --- | --- |
| N#Cc1ccc(C#Cc2cncc3cc(/C=C4\SC(=S)NC4=O)oc23)cc1 [Example 548, (Z)-4-([2-{(4-Oxo-2-thioxothiazolidin-5-ylidene)methyl}furo[3,2-c]pyridin-7-yl]ethynyl)benzonitrile] | 25 nM | 250 nM | 138 nM | 8 nM |
| CC(C)c1ccccc1C#Cc1cncc2cc(/C=C3\SC(=S)NC3=O)oc12 [Example 554, (Z)-5-([7-{(2-Isopropylphenyl)ethynyl}furo[3,2-c]pyridin-2-yl]methylene)-2-thioxothiazolidin-4-one] | 78 nM | > 10000 nM | 8620 nM | 67 nM |
| O=C1NC(=S)S/C1=C\c1cc2cncc(C#Cc3ccsc3)c2o1 [Example 555, (Z)-5-[{7-(Thiophen-3-ylethynyl)furo[3,2-c]pyridin-2-yl}methylene]-2-thioxothiazolidin-4-one] | 18 nM | 120 nM | 3470 nM | 5 nM |
| COC(=O)c1ccccc1C#Cc1cncc2cc(/C=C3\SC(=S)NC3=O)oc12 [Example 558, (Z)-Methyl 2-([2-{(4-oxo-2-thioxothiazolidin-5-ylidene)methyl}furo[3,2-c]pyridin-7-yl]ethynyl)benzoate] | 10 nM | 41 nM | 468 nM | 3 nM |
| COC(=O)c1cccc(C#Cc2cncc3cc(/C=C4\SC(=S)NC4=O)oc23)c1 [Example 569, (Z)-Methyl 3-([2-{(4-oxo-2-thioxothiazolidin-5-ylidene)methyl}furo[3,2-c]pyridin-7-yl]ethynyl)benzoate] | 16 nM | 493 nM | 5920 nM | 1 nM |
| CN(C)S(=O)(=O)c1ccc(C#Cc2cncc3cc(/C=C4\SC(=S)NC4=O)oc23)cc1 [Example 571, (Z)—N,N-Dimethyl-4-([2-{(4-oxo-2-thioxothiazolidin-5-ylidene)methyl}furo[3,2-c]pyridin-7-yl]ethynyl)benzenesulfonamide] | 15 nM | 78 nM | 2410 nM | 1 nM |
